Results from paper PMC7055300, “Theileria parasites subvert E2F signaling to stimulate leukocyte proliferation” (Scientific Reports, 2020).

How the values were obtained:
[1] = target: T1, Retinoblastoma-1 (RB) pocket domain (Homo sapiens, UniProt P06400); experiment: Surface plasmon resonance binding to RB pocket domain; conditions: SPR, RB pocket domain on sensor chip; sequence-scrambled peptides as negative controls
T1 construct: Recombinant, purified RB pocket domain was coupled to the surface of the sensor chip; purchased LDBiopharma HTF-1035
T1 sequence (P06400 373-771 limits assumed): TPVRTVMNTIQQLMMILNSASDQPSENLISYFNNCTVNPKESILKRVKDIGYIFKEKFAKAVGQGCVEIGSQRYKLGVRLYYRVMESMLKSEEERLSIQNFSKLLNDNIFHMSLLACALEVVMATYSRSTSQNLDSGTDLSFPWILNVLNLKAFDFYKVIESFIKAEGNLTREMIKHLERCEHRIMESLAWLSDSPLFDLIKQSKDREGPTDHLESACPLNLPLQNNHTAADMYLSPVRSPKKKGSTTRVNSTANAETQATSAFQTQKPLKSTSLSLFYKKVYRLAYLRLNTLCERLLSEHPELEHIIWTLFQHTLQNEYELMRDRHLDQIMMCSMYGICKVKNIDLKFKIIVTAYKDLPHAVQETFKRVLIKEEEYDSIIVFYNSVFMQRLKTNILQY
From the text: Since the proliferation of T. parva-infected host cells is thought to be critical for the pathogenesis of infection, we investigated whether synthesized peptides, each 9 to 19 amino acids long and containing these 15 T. parva motifs, could bind to RB (Supplementary Table 1). Surface plasmon resonance (SPR) was used to screen these peptides for specific RB1 pocket domain-binding activity. Recombinant, purified RB pocket domain was coupled to the surface of the sensor chip, and purified peptides were introduced at various concentrations to quantify kinetics if response curves indicated a detectable protein-protein interaction. Sequence-scrambled peptides were used as negative controls to exclude false-positive signals.
Immobilization of human RB1 protein to CM5 chip
Surface preparation. […]
(§1) Kinetics analysis of binding. […] The analytes (60 µl each, 0–25 µM in HBS-EP buffer with 0.05% P20) were injected into flow cell and the association of analyte and ligand were recorded respectively by surface plasmon resonance (SPR) with a Biacore T200 (Biacore, Inc., New Jersey). […]
(§2) Data analysis. Sensorgrams of the interaction generated by the instrument were analyzed using the software BIAeval 3.2 (Biacore Inc., New Jersey). […]

RB pocket domain / E2F-1 = experiment: SPR competition of TpGcpE with E2F-1 for the RB pocket domain; format: binding, human; conditions: TpGcpE bound to saturation, then E2F-1 added
From the text: In order to map the site of the interaction of the LXCXE motif with the RB pocket domain, we used SPR to test the ability of full-length TpGcpE protein to compete with two proteins that have known, well-characterized interactions with the RB pocket domain, E2F1 and HDAC1. The RB pocket domain was coupled to the surface of the sensor chip, and purified, recombinant, full-length TpGcpE was introduced into the flow channel to bind the RB pocket domain to saturation; then either purified, recombinant E2F-1 or HDAC1 was added to the channel and the response curve recorded to determine if they competed withTpGcpE binding.
(a) A kinetic surface plasmon resonance binding curve (sensorgram) of full-length HDAC1 to the RB pocket domain is shown. (b) Kinetic binding curve of full-length HDAC1 in competition with full-length TpMuguga02_00667 (TpGcpE). (c) A sensorgram of full-length E2F1 to the RB pocket domain is shown. […]
as §1, §2

RB-HDAC1 = RB-HDAC1 binding with penetrating peptides; format: cell-based; conditions: discussion statement
[2] = system: E2F activity in T. annulata-infected B cells; experiment: E2F-luc reporter assay, T. annulata-infected B cells (TBL20); format: cell-based, bovine; conditions: for E2F reporter activity: T. annulata-infected B cells, E2F-luc, 1 μM penetrating peptide, 2 hrs
Method: (§3) Since no system for genetic manipulation is available yet for intracellular Theileria, we instead incubated T. parva- and T. annulata-infected bovine leukocytes (transfected with a luciferase reporter regulated from an E2F promoter) with synthesized peptides containing the RB-binding LXCXE motif, or a mutated LXNXE negative control, linked to a cell-penetrating peptide. If the LXCXE-containing peptide can regulate E2F activity in a sequence-specific manner, we would expect it to increase E2F activity, and that this effect would be reduced or abrogated in the mutated LXNXE peptide-treated group.
(§4) (a) TpMD409B.2 cells were transfected with E2F-luc (WT = wild-type E2F binding construct), or mutated E2F-luc constructs (labeled ‘mutated’) together with a CMV-lacZ plasmid to normalize for transfection efficiency. Luciferase and β-galactosidase activities were measured 24 hrs after transfection. E2F-luc relative luciferase activity normalized to mE2F-luc. Shown is the average of 3 independent experiments with standard deviation. BL20 or TBL20 cells were treated with (b) 1μM of penetrating peptides ([…]-K(FITC)) containing the TpGcpE LXCXE motif, or an LXNXE control ([…]-K(FITC)) or (c) E2F inhibitor or DMSO control, and then counted by hemacytometer after the indicated timepoints. Shown is the average of 3 independent experiments with standard deviation. Then, either (d) virulent Ode T. annulata-transformed macrophages, or (e) BL20/TBL20 T. annulata-transformed cells were transfected with E2F-luc plasmid (or mutated E2F-luc as in (c)) and incubated for 24 hrs at 37 °C. Then, cells were treated with penetrating peptides as in (b) for 2 hrs and luciferase activity was quantified. […]
TpMD409.B2 cells were co-transfected with 20 μg (E2F-luc, mE2F-luc), or 10 μg (cyclin E-luc) reporter construct, 20 μg of expression vector and 5 μg of pCMV-lacZ, where indicated. Luciferase and β-galactosidase activities were measured 24 h after transfection according to previously published procedures. […]

BL20/TBL20 cells = format: cell-based, bovine; conditions: penetrating peptides, 24 h and 48 h; data not shown
Method: Since the LXCXE peptide can induce E2F activity, we investigated whether it could, on its own, increase bovine leukocyte proliferation. To extend our observations to T. annulata-infected leukocytes, we incubated T. annulata-infected B cells with WT or mutated LXNXE peptides and counted cell numbers at 24 h and 48 h.
The amino acid sequence of RB-1 based on the parasite sequence ([…]) was synthesized. Cysteine in wild type RB1 was replaced by an Asparagine (N; in bold […]). The penetrating peptide to facilitate cell entry is underlined. 3 different concentrations of peptides were used for 2 h to determine the minimum effective concentration (1 μM) with minimum toxic effect, which was used to perform each experiment as indicated.

[3] = system: T. annulata-infected TBL20 cells; experiment: Cell proliferation, T. annulata-infected B cells (TBL20), hemacytometer count; format: cell-based, bovine
Method: (a) TpMD409B.2 cells were transfected with E2F-luc (WT = wild-type E2F binding construct), or mutated E2F-luc constructs (labeled ‘mutated’) together with a CMV-lacZ plasmid to normalize for transfection efficiency. Luciferase and β-galactosidase activities were measured 24 hrs after transfection. E2F-luc relative luciferase activity normalized to mE2F-luc. Shown is the average of 3 independent experiments with standard deviation. BL20 or TBL20 cells were treated with (b) 1μM of penetrating peptides ([…]-K(FITC)) containing the TpGcpE LXCXE motif, or an LXNXE control ([…]-K(FITC)) or (c) E2F inhibitor or DMSO control, and then counted by hemacytometer after the indicated timepoints. Shown is the average of 3 independent experiments with standard deviation. Then, either (d) virulent Ode T. annulata-transformed macrophages, or (e) BL20/TBL20 T. annulata-transformed cells were transfected with E2F-luc plasmid (or mutated E2F-luc as in (c)) and incubated for 24 hrs at 37 °C. Then, cells were treated with penetrating peptides as in (b) for 2 hrs and luciferase activity was quantified. Data shown are representative of three independent experiments done with biological duplicates, with mean + standard deviation (*P-value < 0.05 compared to untreated; ^‡P-value < 0.05 compared to its respective BL20 control).
The TpMD409.B2 cell line is a T. parva Muguga-infected B-cell clone (B2) whose establishment, phenotypic characteristics and culture conditions have been described[25]–[27]. BL20 cells are a retrovirus-transformed B cell line isolated from an infected cow. To eliminate the parasite, cells were treated for the indicated time with buparvaquone (50 ng/ml, 1 mg/ml stock in ethanol; Sigma). To inhibit E2F activity, cells were treated for the indicated time with HLM006474 (10 μM in DMSO, Sigma), or DMSO (10μM; Sigma) as a control. The T. annulata-infected cell lines BL20 (B cell), as well as Ode (macrophage) cell lines are well described and characterized.
The amino acid sequence of RB-1 based on the parasite sequence ([…]) was synthesized. Cysteine in wild type RB1 was replaced by an Asparagine (N; in bold […]). The penetrating peptide to facilitate cell entry is underlined.

[4] = system: E2F activity in T. annulata-infected macrophages; experiment: E2F-luc reporter assay, T. annulata-transformed macrophages (Ode); format: cell-based, bovine; conditions: 1 μM penetrating peptide, 2 hrs
Method: as §3
as §4, with “Shown is the average of 3 independent experiments with standard deviation. Then, either (d) virulent Ode T. annulata-transformed macrophages, or (e) BL20/TBL20 T. annulata-transformed cells were transfected with E2F-luc plasmid (or mutated E2F-luc as in (c)) and incubated for 24 hrs at 37 °C.” left out

[5] = system: E2F activity in T. parva-infected B cells; experiment: E2F-luc reporter assay, T. parva-infected B cells; format: cell-based, bovine; conditions: penetrating peptide
Method: as §3
TpMD409.B2 cells were co-transfected with 20 μg (E2F-luc, mE2F-luc), or 10 μg (cyclin E-luc) reporter construct, 20 μg of expression vector and 5 μg of pCMV-lacZ, where indicated. Luciferase and β-galactosidase activities were measured 24 h after transfection according to previously published procedures. TpMD409.B2 cells were also co-transfected with pCMV-HA-DP-1 D103–126 and c-myc-luciferase as previously described.
The amino acid sequence of RB-1 based on the parasite sequence ([…]) was synthesized. Cysteine in wild type RB1 was replaced by an Asparagine (N; in bold […]). The penetrating peptide to facilitate cell entry is underlined. […]

Row | Substance | RB binding in words [1] | competition with E2F-1 for RB pocket domain binding (RB pocket domain / E2F-1) | RB-HDAC1 binding (RB-HDAC1) | E2F reporter activity [2] | E2F-driven transcription ([2]; discussion statement, infected leukocytes) | cell viability (BL20/TBL20 cells) | proliferation (cell number) ([3]; T. annulata-infected B cells, 1 μM penetrating peptide, 24 h and 48 h, average of 3 independent experiments) | infected leukocyte proliferation ([3]; discussion statement) | E2F reporter activity [4] | E2F reporter activity [5]
1 | E2F1: host E2F transcription factor, known RB pocket domain binder | binding to the RB pocket domain | does not compete with full-length TpGcpE for binding to the RB pocket domain | – | – | – | – | – | – | – | –
2 | VKKKKIKREIKIYIEEVFTPLVLKCKELK-K(FITC) [LXCXE peptide, penetrating peptide containing the TpGcpE LXCXE motif, used in cells] | – | – | block RB-HDAC1 binding | increased E2F activity | activate E2F-driven transcription | no effect on cell viability | induced a significant increase in proliferation | promote infected leukocyte proliferation | increased E2F activity | –
3 | VKKKKIKREIKIYIEEVFTPLVLKNKELK-K(FITC) [LXNXE peptide, penetrating peptide with mutated LXNXE motif, negative control] | – | – | – | did not show the same reporter activity as the LXCXE peptide | – | no effect on cell viability | – | – | did not show the same reporter activity as the LXCXE peptide | did not show the same reporter activity as the LXCXE peptide
